Measurements as given in US20200024299A1, “CRYSTALLINE FORMS OF A BILE ACID DERIVATIVE” (Intercept Pharmaceuticals, Inc., priority 2016, published 2020).
“Also recorded” adds a separate entry of the source.

Tests used:
Assay type in all cases: physicochemical
[1] = Storage stability at controlled temperature / relative humidity
[2] = Gravimetric Vapor Sorption (GVS), hygroscopicity
Protocol: Sorption isotherms were obtained using a SMS DVS Intrinsic moisture sorption analyzer, controlled by DVS Intrinsic Control software v1.0.1.2 (or v 1.0.1.3). The sample temperature was maintained at 25° C. by the instrument controls. The humidity was controlled by mixing streams of dry and wet nitrogen, with a total flow rate of 200 mL/min. The relative humidity was measured by a calibrated Rotronic probe (dynamic range of 1.0-100% RH), located near the sample. The weight change, (mass relaxation) of the sample as a function of % RH was constantly monitored by the microbalance (accuracy ±0.005 mg).
Typically, 5-20 mg of sample was placed in a tared mesh stainless steel basket under ambient conditions. The sample was loaded and unloaded at 40% RH and 25° C. (typical room conditions). A moisture sorption isotherm was performed as outlined below (2 scans giving 1 complete cycle). The standard isotherm was performed at 25° C. at 10% RH intervals over a 0-90% RH range. Data analysis was carried out using Microsoft Excel using DVS Analysis Suite v6.2 (or 6.1 or 6.0).

[3] = Variable Temperature XRPD (physical stability on heating); details: upon heating
Protocol: X-Ray Powder Diffraction patterns were collected on a Bruker AXS C2 GADDS diffractometer using Cu Kα radiation (40 kV, 40 mA), automated XYZ stage, laser video microscope for auto-sample positioning and a HiStar 2-dimensional area detector. X-ray optics consists of a single Gobel multilayer mirror coupled with a pinhole collimator of 0.3 mm. A weekly performance check is carried out using a certified standard NIST 1976 Corundum (flat plate).
The beam divergence, i.e., the effective size of the X-ray beam on the sample, was approximately 4 mm. A 0-0 (theta-theta) continuous scan mode was employed with a sample—detector distance of 20 cm which gives an effective 20 (theta) range of 3.2°-29.7°. Typically, the sample would be exposed to the X-ray beam for 120 seconds. The software used for data collection was GADDS for XP/2000 4.1.43 and the data were analyzed and presented using Diffrac Plus EVA v15.0.0.0.
Samples run under non-ambient conditions were mounted on a silicon wafer with heat-conducting compound. The sample was then heated to the appropriate temperature at 20° C./min and subsequently held isothermally for 1 minute before data collection was initiated.

[4] = Aqueous solubility at 25° C.; details: water
[5] = listed as Amorphous Form of Compound 1-Na

## CC[C@H]1[C@@H](O)C2C3CC[C@H]([C@H](C)CCOS(=O)(=O)[O-])[C@@]3(C)CCC2[C@@]2(C)CC[C@@H](O)C[C@@H]12.[Na+] (stereo partly drawn) [Form A of Compound 1-Na Formed via Suspension] [6α-ethyl-3α,7α,23-trihydroxy-24-nor-5β-cholan-23-sulphate sodium]
[1]; 25° C./60% RH
  Storage @ 25° C./60% RH: successful for at least 1 month; also recorded: Unchanged for at least 1 month
[1]
  Storage @ 25° C./97% RH: Deliquesced in less than 3 days
  Storage @ 40° C./75% RH: Deliquesced in less than 3 days

## CC[C@H]1[C@@H](O)C2C3CC[C@H]([C@H](C)CCOS(=O)(=O)[O-])[C@@]3(C)CCC2[C@@]2(C)CC[C@@H](O)C[C@@H]12.[Na+] (stereo partly drawn) [Example 5, 6α-ethyl-3α,7α,23-trihydroxy-24-nor-5β-cholan-23-sulphate sodium]
[1]; 25° C./60% RH
  Storage @ 25° C./60% RH: stable for at least one month; also recorded: Unchanged for at least 1 month
[1]
  Storage @ 25° C./97% RH: deliquesced sample after 3 days; also recorded: Deliquesced in three days
  Storage @ 40° C./75% RH: deliquesced sample after 3 days; also recorded: Deliquesced in three days
[2]; 25° C., 40% to 80% RH
  GVS water uptake from 40% to 80% RH: 4 % w/w
  GVS water uptake from 40% to 80% RH (equivalents of water): 1.1 eq
[2]; 25° C., 80% to 90% RH
  GVS water uptake from 80% to 90% RH: 24 % w/w
  GVS water uptake from 80% to 90% RH (equivalents of water): 6.6 eq
[2]; 25° C., up to 90% RH
  GVS: state of sample during the analysis: the sample deliquesced
[2]; 40% to 80% RH
  Hygroscopic profile from 40% to 80% RH: moderate hygroscopic profile
[2]; RH greater than 80%
  GVS water uptake at RH greater than 80%: 24%
  GVS water uptake at RH greater than 80% (equivalents of water): 6.6 eq
  Hygroscopic profile at RH greater than 80%: very hygroscopic profile
[3]
  VT-XRPD: unchanged upon heating

## CC[C@H]1[C@@H](O)C2C3CC[C@H]([C@H](C)CCOS(=O)(=O)[O-])[C@@]3(C)CCC2[C@@]2(C)CC[C@@H](O)C[C@@H]12.[Na+] (stereo partly drawn) [Amorphous Compound 1-Na, 6α-ethyl-3α,7α,23-trihydroxy-24-nor-5β-cholan-23-sulphate sodium]
[4]
  Aqueous Solubility (25° C.): >200 mg/mL
  solubility: > 200 mg/mL
[1]; 25° C./60% RH
  Storage @ 25° C./60% RH: Unchanged for at least 1 month
[1]; 25° C./60% RH, listed as Amorphous Form of Compound 1-Na
  Storage @ 25° C./60% RH: physically stable for at least 1 month
[1]
  Storage @ 25° C./97% RH: Deliquesced in less than days
  Storage @ 40° C./75% RH: Deliquesced in less than 3 days
[1]; [5]
  Storage @ 25° C./97% RH: deliquescent
  Storage @ 40° C./75% RH: deliquescent

## CC[C@H]1[C@@H](O)C2C3CC[C@H]([C@H](C)CCOS(=O)(=O)[O-])[C@@]3(C)CCC2[C@@]2(C)CC[C@@H](O)C[C@@H]12.[Na+] (stereo partly drawn) [6α-ethyl-3α,7α,23-trihydroxy-24-nor-5β-cholan-23-sulphate sodium]
[1]; 12 days, 25° C./60% RH
  12 days Storage @ 25° C./60% RH: Unchanged
[1]; 12 days, 40° C./60% RH
  12 days Storage @ 40° C./60% RH: Unchanged
[2]; 40% to 60% RH
  GVS water uptake from 40% to 60% RH: 2.6% w/w of water uptake from 40% to 60% RH.
[2]; after GVS
  XRPD post GVS: Unchanged
[2]; sorption/desorption
  GVS hysteresis (process reversible): ~1% w/w
[2]; whole GVS cycle
  GVS total water uptake: Total of 8% w/w water uptake.
